For 27 compounds, IC50 results are on record in patent US9090593B2, “Bicyclic compounds as Pim inhibitors” (AMGEN INC., priority 2010, dated 2015).

Assay [1] addresses T1, full length recombinant Pim-1 protein (Homo sapiens, UniProt P11309).
T1 construct: by full length recombinant Pim-1, Pim-2, or Pim-3 protein; hexahistidine tag followed by a thrombin cleavage site (N); made in house; host or cells: Sf9 (baculovirus) or E. coli (pET28)
The assay can be described thus: Pim-1 enzyme assay (HTRF, phosphorylation of biotinylated-BAD (S112) peptide). Type of assay: biochemical. Conditions: read-out: Pim_1_IC50. The method, boiled down: (§1)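 Each full-length human Pim enzyme phosphorylates a biotinylated BAD (S112) peptide, and the product is sensed by Eu anti-phospho-BAD antibody with streptavidin-APC after quenching with 3 mM EDTA. Conditions: 60 mM Hepes pH 7.0, 0.05% BSA, 2 mM DTT.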
For orientation: In TR-FRET formats the signal depends on donor and acceptor labels being close together.

Assay [2] addresses T2, full length recombinant Pim-2 protein (Homo sapiens, UniProt Q9P1W9).
T2 construct: by full length recombinant Pim-1, Pim-2, or Pim-3 protein; hexahistidine tag followed by a thrombin cleavage site (N); made in house; host or cells: Sf9 (baculovirus) or E. coli (pET28)
The assay can be described thus: Pim-2 enzyme assay (HTRF, phosphorylation of biotinylated-BAD (S112) peptide). Type of assay: biochemical. Conditions: read-out: Pim2_IC50. The method, boiled down:
as §1

In assay [3] the target is T3, full length recombinant Pim-3 protein (Homo sapiens, UniProt Q86V86).
T3 construct: by full length recombinant Pim-1, Pim-2, or Pim-3 protein; purchased Millipore (UK)
The assay can be described thus: Pim-3 enzyme assay (HTRF, phosphorylation of biotinylated-BAD (S112) peptide). Type of assay: biochemical. Conditions: read-out: Pim3 IC50. The text has this:
Pim-3 was purchased from Millipore (UK).
The phosphorylation of biotinylated-BAD (S112) peptide by full length recombinant Pim-1, Pim-2, or Pim-3 protein was detected with streptavidin:Allophycocyanin (APC) conjugate and a europium (Eu) labeled antibody directed against phosphorylated-BAD (S112). […] The fluorescence is directly proportional to the amount of phosphorylated BAD peptide present in the reaction.
A reference compound was included on each assay plate in order to validate that plate; on one plate of every assay run, two additional reference compounds were included.
The final buffer conditions were as follows: 60 mM Hepes, pH 7.0, 0.05% BSA, 2 mM DTT. […] The reaction was stopped by the addition of 3 mM EDTA, and fluorescence was measured by an HTRF® Rubystar microplate reader. For each plate, percent of control (POC) values were calculated for each well. Values for the IC50 IP were estimated using a standard 4-parameter logistic model.

In assay [4] the target is T4, Pim-1 stably transfected into the U2OS human osteogenic sarcoma line (Homo sapiens, UniProt P11309).
T4 construct: expressed in transfected cells; host or cells: U2OS human osteogenic sarcoma line
The assay can be described thus: Pim cell assay, phospho-BAD normalized against total BAD, U2OS stably transfected with Pim-1. Type of assay: cell-based. Conditions: U2OS stably transfected with Pim-1; phospho-BAD normalized against total BAD; 29 min incubation; read-out: Pim1_Cell_IC50_. The method, boiled down: (§2)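 Read-out is phospho-BAD relative to total BAD, by MSD electrochemiluminescence on lysates, expressed as % phosphoprotein = (2×phospho)/(phospho+total)×100. Engineered U2OS lines carrying stably transfected Pim-1 or Pim-2 received 10-point compound dilutions at 0.3% final DMSO after overnight culture at 37 °C; DMSO-only wells served as high control.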

Assay [5] has as its target T5, Pim-2 stably transfected into the U2OS human osteogenic sarcoma line (Homo sapiens, UniProt Q9P1W9).
T5 construct: expressed in transfected cells; host or cells: U2OS human osteogenic sarcoma line
The assay can be described thus: Pim cell assay, phospho-BAD normalized against total BAD, U2OS stably transfected with Pim-2. Type of assay: cell-based. Conditions: U2OS stably transfected with Pim-2; phospho-BAD normalized against total BAD; 29 min incubation; read-out: Pim2_Cell_IC50_. The procedure, abridged: as §2

Like-named read-outs stand apart in the source and are kept apart here.

T4 sequence (P11309 whole entry): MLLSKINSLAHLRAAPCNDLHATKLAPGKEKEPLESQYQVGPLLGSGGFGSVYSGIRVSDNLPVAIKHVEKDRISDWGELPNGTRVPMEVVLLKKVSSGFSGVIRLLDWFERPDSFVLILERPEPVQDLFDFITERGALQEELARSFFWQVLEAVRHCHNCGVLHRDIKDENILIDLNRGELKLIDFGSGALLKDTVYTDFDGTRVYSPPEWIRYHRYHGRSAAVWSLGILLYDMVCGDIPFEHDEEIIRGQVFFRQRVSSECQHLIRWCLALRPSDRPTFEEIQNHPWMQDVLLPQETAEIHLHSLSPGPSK
T1 sequence (P11309 whole entry): as above
T2 sequence (Q9P1W9 whole entry): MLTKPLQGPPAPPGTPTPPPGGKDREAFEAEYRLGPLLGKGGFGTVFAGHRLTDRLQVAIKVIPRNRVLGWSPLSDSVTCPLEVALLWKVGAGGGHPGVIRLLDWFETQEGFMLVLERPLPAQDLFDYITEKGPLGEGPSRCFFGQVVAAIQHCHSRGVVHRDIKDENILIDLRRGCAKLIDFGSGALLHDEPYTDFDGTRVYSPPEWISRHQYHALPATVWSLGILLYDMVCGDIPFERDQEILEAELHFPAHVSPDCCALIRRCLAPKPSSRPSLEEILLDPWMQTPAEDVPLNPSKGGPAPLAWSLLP
T5 sequence (Q9P1W9 whole entry): as above

Take `CC(C)(C)NC(=O)c1ccc(F)c(-c2ccc3[nH]nc(-c4cncc(O[C@@H]5CCCNC5)n4)c3c2)c1` [Example 116, N-tert-butyl-4-fluoro-3-(3-(6-((3R)-3-piperidinyloxy)-2-pyrazinyl)-1H-indazol-5-yl)benzamide]: the IC50 in assay [1] (enzyme assay, Pim-1) turned out to be 27 nM; in assay [2] (enzyme assay, Pim-2) it was 26 nM; in assay [3] it was 22 nM.

As for `Fc1cccc(F)c1-c1ccc2[nH]cc(-c3cncc(O[C@H]4CCCNC4)n3)c2c1` [Example 214, 5-(2,6-difluorophenyl)-3-(6-((3S)-3-piperidinyloxy)-2-pyrazinyl)-1H-indole], the IC50 in assay [1] (enzyme assay, Pim-1) was found to be 45 nM; in assay [2] (enzyme assay, Pim-2), 515 nM; in assay [3], 83 nM.

Turning to `c1cc2cc(-c3ccc4[nH]cc(-c5cncc(O[C@@H]6CCCNC6)n5)c4c3)cnc2[nH]1` [Example 336], the IC50 in assay [1] was 8 nM; in assay [2], 33 nM; in assay [4], 857 nM; in assay [5] it was more than 10000 nM.

For the compound `NC1CCN(c2ccnc(-c3n[nH]c4ccc(-c5c(F)cccc5F)cc34)n2)CC1` [Example 516], the IC50 was 6 nM in assay [1], 142 nM in assay [2], 861 nM in assay [4] and more than 31600 nM in assay [5].

With `COc1cc(-c2n[nH]c3ccc(-c4c(F)cccc4F)cc23)nc(N2CCC(N)CC2)n1` [Example 506], the IC50 was 15 nM in assay [1], 33 nM in assay [2], 3740 nM in assay [4] and more than 31600 nM in assay [5].

Consider `COC(=O)c1ccc2[nH]nc(-c3cncc(O[C@@H]4CCCNC4)n3)c2c1` [Example 476], for which the IC50 stood at 18 nM in assay [1], 144 nM in assay [2], 588 nM in assay [4] and 31600 nM in assay [5].

Consider `CC1(C)CNCCC1Oc1cncc(-c2n[nH]c3ccc(-c4c(F)cccc4F)cc23)n1` (single isomer, unassigned) [Example 433], for which the IC50 was 2 nM in assay [1], 22 nM in assay [2], 801 nM in assay [4] and more than 10000 nM in assay [5].

Regarding `NC1CCN(c2cncc(-c3n[nH]c4ccc(-c5nccc6[nH]ccc56)cc34)n2)CC1` [Example 507], the IC50 is 3 nM in assay [1], 65 nM in assay [2], more than 31600 nM in assay [4] and more than 31600 nM in assay [5].

`FCCOc1cncc(-c2n[nH]c3ccc(-c4cncc(C5CC5)n4)cc23)n1` [Example 384]: the IC50 was 4 nM in assay [1], 27 nM in assay [2], 207 nM in assay [4] and more than 31600 nM in assay [5].

`N#Cc1ccccc1-c1ccc2[nH]cc(-c3cncc(O[C@@H]4CCCNC4)n3)c2c1` [Example 326]: the IC50 was 3 nM in assay [1], 10 nM in assay [2], 314 nM in assay [4] and 7190 nM in assay [5].

Take `c1cc2[nH]cc(-c3cncc(C4CC4)n3)c2cc1-c1cncc(C2CC2)n1` [Example 245, 3,5-bis(6-cyclopropyl-2-pyrazinyl)-1H-indole]: the IC50 was 28 nM in assay [1], 345 nM in assay [2], 3640 nM in assay [4] and more than 31600 nM in assay [5].

As for `c1cc2[nH]nc(-c3cncc(O[C@H]4CNCCC45CC5)n3)c2cc1C1CCOCC1` [Example 264, 3-(6-((4R)-6-azaspiro[25]oct-4-yloxy)-2-pyrazinyl)-5-(tetrahydro-2H-pyran-4-yl)-1H-indazole-2,2,2-trifluoroacetate], the IC50 in assay [1] was 6 nM; in assay [2], 15 nM; in assay [4], 276 nM; in assay [5], more than 10000 nM.

Regarding `CC(C)Nc1nc(-c2c[nH]c3ccc(-c4cncc(C5CC5)n4)cc23)cc(=O)[nH]1` [Example 287, 6-(5-(6-cyclopropylpyrazin-2-yl)-1H-indol-3-yl)-2-(isopropylamino) pyrimidin-4(3H)-one], the IC50 is 6 nM in assay [1], 87 nM in assay [2], 1310 nM in assay [4] and more than 31600 nM in assay [5].

As to `CC(C)OC(=O)c1ccc2[nH]nc(-c3cncc(N4CCC(N)CC4)n3)c2c1` [Example 470], the IC50 in assay [1] came to 2 nM; in assay [2], 8 nM; in assay [4], 204 nM; in assay [5], 8790 nM.

Take `c1cc2c(cc1-c1ccc3[nH]cc(-c4cncc(O[C@@H]5CCCNC5)n4)c3c1)OCO2` [Example 343]: the IC50 was 4 nM in assay [1], 19 nM in assay [2], 1210 nM in assay [4] and more than 15800 nM in assay [5].

As to `NC1CCN(c2cc(O)nc(-c3n[nH]c4ccc(-c5c(F)cccc5F)cc34)n2)CC1` [Example 482], the IC50 in assay [1] is 1 nM; in assay [2] it was 4 nM; in assay [4] it was 1200 nM; in assay [5] it was more than 31600 nM.

As to `c1cc2[nH]cc(-c3cncc(O[C@@H]4CCCNC4)n3)c2cc1-c1cnn(C2CC2)c1` [Example 291, 5-(1-cyclopropyl-1H-pyrazol-4-yl)-3-(6-((3R)-3-piperidinyloxy)-2-pyrazinyl)-1H-indole], the IC50 is 6 nM in assay [1], 32 nM in assay [2], 154 nM in assay [4] and 11800 nM in assay [5].

Consider `CC(C)NC(=O)c1ccc(F)c(-c2ccc3[nH]nc(-c4cncc(N[C@@H]5CCCNC5)n4)c3c2)c1` [Example 362], for which the IC50 in assay [1] stood at 3 nM; in assay [2], 7 nM; in assay [4], 864 nM; in assay [5], 4150 nM.

Take `N#CC1(c2cccc(-c3ccc4[nH]cc(-c5cncc(O[C@@H]6CCCNC6)n5)c4c3)c2)CCC1` [Example 350]: the IC50 in assay [1] is 6 nM; in assay [2], 193 nM; in assay [4], 2360 nM; in assay [5] it was more than 15800 nM.

With `COC(=O)c1ccc2[nH]nc(-c3ccnc(N[C@@H]4CCCNC4)n3)c2c1` [Example 490], the IC50 is 13 nM in assay [1], 54 nM in assay [2], 522 nM in assay [4] and more than 15800 nM in assay [5].

For the compound `CC1CCNCC1Oc1cncc(-c2n[nH]c3ccc(-c4c(F)cccc4F)cc23)n1` (single isomer, unassigned) [Example 423], the IC50 in assay [1] was 17 nM; in assay [2] it was 194 nM; in assay [4], 1660 nM; in assay [5], more than 31600 nM.

As to `Nc1ccc(-c2ccc3[nH]cc(-c4cncc(O[C@@H]5CCCNC5)n4)c3c2)cc1OC(F)(F)F` [Example 341], the IC50 is 9 nM in assay [1], 69 nM in assay [2], 1270 nM in assay [4] and more than 15800 nM in assay [5].

Turning to `CC1(C)CNCCC1Oc1cncc(-c2n[nH]c3ccc(-c4c(F)cccc4F)cc23)n1` (single isomer, unassigned) [Example 432], the IC50 in assay [1] is 20 nM; in assay [2] it was 114 nM; in assay [4], 2410 nM; in assay [5], more than 31600 nM.

As for `CC(C)Oc1ccc(-c2ccc3[nH]cc(-c4cncc(O[C@@H]5CCCNC5)n4)c3c2)cc1` [Example 324], the IC50 in assay [1] was 4 nM; in assay [2] it was 34 nM; in assay [4], 957 nM; in assay [5], more than 31600 nM.

For `NC1CCN(c2nc(-c3c[nH]c4ccc(-c5c(F)cccc5F)cc34)cc(=O)[nH]2)CC1` [Example 277, 2-(4-aminopiperidin-1-yl)-6-(5-(2,6-difluorophenyl)-1H-indol-3-yl)pyrimidin-4(3H)-one], the IC50 in assay [1] is 1 nM; in assay [2], 2 nM; in assay [4] it was 2470 nM; in assay [5] it was more than 31600 nM.

As for `c1cc2[nH]nc(-c3cncc(C4CC4)n3)c2cc1-c1cncc(C2CC2)n1` [Example 244, 3,5-bis(6-cyclopropyl-2-pyrazinyl)-1H-indazole], the IC50 was 1 nM in assay [1], 3 nM in assay [2], 169 nM in assay [4] and more than 10000 nM in assay [5].

For `Brc1ccc2[nH]nc(-c3cncc(O[C@@H]4CNCCC45CC5)n3)c2c1` [Example 421], the IC50 in assay [1] turned out to be 19 nM; in assay [2], 50 nM; in assay [4] it was 1150 nM; in assay [5], 31700 nM.
